Measurements: patent US8853246B2 (Dow AgroSciences LLC, priority 2009, dated 2014)

Experiments:
[1] = system: Green Peach Aphid (Myzus Persicae); assay: Insecticidal test for green peach aphid in foliar spray assay (col. MYZUPE); type: in vivo; settings: Myzus persicae, 72 h, green peach aphid, read-out: MYZUPE 200 ppm (Corrected % Control, rating)
Method in brief: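 Cabbage seedlings with 2-3 true leaves, infested with 20-50 wingless adult and nymph aphids one day earlier, sprayed to runoff at 200 ppm (acetone/methanol stock diluted in 0.025% Tween 20), four pots per treatment. After 3 days at ~25 °C, 40% RH, live aphids counted; corrected % control versus solvent-sprayed plants.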

[2] = system: Sweetpotato Whitefly-Crawler (Bemisia Tabaci); assay: Insecticidal test for sweetpotato whitefly-crawler in foliar spray assay (col. BEMITA); type: in vivo; settings: Bemisia tabaci, sweetpotato whitefly-crawler, read-out: BEMITA 200 ppm (Corrected % Control, rating)
Method in brief: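 Cotton plants (one 3-5 cm true leaf) infested with whitefly eggs (100-300/plant), held 5-6 days at 82° F, 50% RH until crawlers developed. Sprayed to runoff at 200 ppm (acetone stock diluted in 0.025% Tween 20), four plants per treatment. Live nymphs counted after 8-9 days; % control by Abbott's correction versus solvent check.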

SMILES | pest or weed control at 200 ppm [1] [%] | pest or weed control at 200 ppm [2] [%] | melting point [°C]
Cc1nc(-c2cncc(F)c2)sc1NC(=O)C(C)(C)CS(C)(=O)=O [Compound 144] | 80 to 100 | < 80 | 157 to 167
Cc1nc(-c2cncc(F)c2)sc1NC(=O)C(C)C[S+](C)[O-] (stereo not drawn) [Compound 145] | 80 to 100 | < 80 | 194 to 198
Cc1nc(-c2cncc(F)c2)sc1NC(=O)C(C)CS(C)(=O)=O (stereo not drawn) [Compound 146] | 80 to 100 | < 80 | 187 to 189
Cc1nc(-c2cncc(F)c2)sc1NC(=O)CC[S+](C)[O-] (stereo not drawn) [Compound 147] | 80 to 100 | < 80 | 181 to 184
Cc1nc(-c2cncc(F)c2)sc1NC(=O)CCS(C)(=O)=O [Compound 148] | 80 to 100 | < 80 | 230 to 232
Cc1nc(-c2ccc(Cl)nc2)sc1NC(=O)OC(C)(C)C [Compound 149] | < 80 | < 80 | 154 to 157
Cc1cncc(-c2nc(C)c(NC(=O)OC(C)(C)C)s2)c1 [Compound 150] | 80 to 100 | < 80 | 135 to 138
Cc1nc(-c2cncc(C#N)c2)sc1NC(=O)OC(C)(C)C [Compound 151] | < 80 | < 80 | 171 to 174
CSCC(C)C(=O)N(C(=O)OC(C)(C)C)c1sc(-c2ccc(Cl)nc2)nc1C (stereo not drawn) [Compound 153] | < 80 | 80 to 100 | 82 to 85
CSCC(C)C(=O)N(C(=O)OC(C)(C)C)c1sc(-c2cncc(C#N)c2)nc1C (stereo not drawn) [Compound 158] | < 80 | < 80 | 125 to 128
CSCC(C)C(=O)Nc1sc(-c2ccc(F)nc2)nc1C (stereo not drawn) [Compound 159] | 80 to 100 | 80 to 100 | 143 to 146
CCOC(=O)c1cncc(-c2nc(C)c(NC(=O)OC(C)(C)C)s2)c1 [Compound 160] | < 80 | < 80 | 124 to 128
Cc1nc(-c2cncc(F)c2)sc1NC(=O)C(C)C/S(C)=N\C#N (stereo not drawn) [Compound 163] | 80 to 100 | < 80 | 75 to 81
CSCC(C)C(=O)Nc1sc(-c2ccc(Cl)nc2)nc1C (stereo not drawn) [Compound 169] | < 80 | 80 to 100 | 142 to 146
CSCC(C)C(=O)Nc1sc(-c2cncc(C#N)c2)nc1C (stereo not drawn) [Compound 172] | 80 to 100 | 80 to 100 | 127 to 131
COc1cncc(-c2nc(C)c(NC(=O)OC(C)(C)C)s2)c1 [Compound 175] | < 80 | < 80 | 136 to 140
CSCCNC(=O)N(C)c1sc(-c2cccnc2)nc1C [Compound 177] | 80 to 100 | < 80 | 115 to 119
CSCCOC(=O)Nc1sc(-c2cccnc2)nc1C [Compound 181] | 80 to 100 | < 80 | 123 to 126
CC(=O)Nc1sc(-c2cccnc2)nc1C [Compound 186] | < 80 | < 80 | 180 to 182

SMILES | pest or weed control at 200 ppm [1] [%] | pest or weed control at 200 ppm [2] [%] | melting point [°C]
Cc1nc(-c2cccnc2)sc1NC(=O)[C@H](C)NC(=O)OC(C)(C)C [Compound 187] | 80 to 100 | < 80 | 166 to 169
CC(=O)N(C)c1sc(-c2cccnc2)nc1C [Compound 193] | 80 to 100 | 80 to 100 | 127 to 130
COC(=O)CCC(=O)Nc1sc(-c2cccnc2)nc1C [Compound 197] | 80 to 100 | < 80 | 151 to 153
COCC(C)(C)OC(=O)Nc1sc(-c2cccnc2)nc1C [Compound 199] | 80 to 100 | 80 to 100 | 120 to 123
Cc1nc(-c2cccnc2)sc1NC(=O)OCc1ccccc1 [Compound 201] | < 80 | < 80 | 137 to 139
COC(=O)Nc1sc(-c2cccnc2)nc1C [Compound 202] | < 80 | < 80 | 159 to 160
C=CC(=O)N(C(=O)OC(C)(C)C)c1sc(-c2cccnc2)nc1C [Compound 205] | 80 to 100 | 80 to 100 | 68 to 70
Cc1nc(-c2cccnc2)sc1NC(=O)CCCCl [Compound 209] | 80 to 100 | < 80 | 144 to 147
CSC(C)(C)CC(=O)N(C)c1sc(-c2cncc(F)c2)nc1C [Compound 212] | 80 to 100 | 80 to 100 | 73 to 80
CS[C@H]1CC1C(=O)N(C)c1sc(-c2cncc(F)c2)nc1C (stereo partly drawn) [Compound 216] | 80 to 100 | 80 to 100 | 88 to 90
CSC(C)(C)CC(=O)Nc1sc(-c2cncc(F)c2)nc1C [Compound 217] | 80 to 100 | < 80 | 123 to 126
Cc1nc(-c2cncc(F)c2)sc1NC(=O)C1CCSC1 (stereo not drawn) [Compound 219] | 80 to 100 | < 80 | 209 to 213
CS[C@H]1CC1C(=O)Nc1sc(-c2cncc(F)c2)nc1C (stereo partly drawn) [Compound 220] | 80 to 100 | 80 to 100 | 206 to 212
C=CC[S+]([O-])CC(C)C(=O)Nc1sc(-c2cccnc2)nc1C (stereo not drawn) [Compound 225] | 80 to 100 | 80 to 100 | 147 to 149
CCN(C(=O)CC[S+](C)[O-])c1sc(-c2cccnc2)nc1C (stereo not drawn) [Compound 238] | 80 to 100 | 80 to 100 | 89 to 92
Cc1nc(-c2cncc(Br)c2)sc1N(C)C(=O)OC(C)(C)C [Compound 251] | < 80 | 80 to 100 | 74 to 76
CC(C)C(=O)N(C)c1sc(-c2cncc(F)c2)nc1Cl [Compound 263] | 80 to 100 | 80 to 100 | 123 to 125
CSCC(C)(C)C(=O)N(C)c1sc(-c2cccnc2)nc1Cl [Compound 264] | 80 to 100 | 80 to 100 | 103 to 106
CC(C)(C)OC(=O)N(COCc1ccccc1)c1cnc(-c2cccnc2)s1 [Compound 265] | 80 to 100 | < 80 | 98 to 99
